Results: the supplement of paper PMC10307832

Columns and labels:
Assay in all cases: relative viability (nuclei count vs DMSO), 5 days (fraction); higher = more cells survive
[1] = test system: PC-14
Method in brief: (§1)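 Lung cancer cell lines in 1536-well plates got either a single drug or a fixed anchor-drug dose together with five library-drug doses (not always all listed) in √10 steps, by pin tool, on the day after seeding. Nuclei were counted after 5 days, and relative viability is the treated-to-vehicle ratio of nuclei counts. Values are medians of duplicate plates.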

[2] = test system: NCI-H2405
Method in brief: as §1

[3] = test system: NCI-H23
Method in brief: as §1

[4] = test system: H3255
Method in brief: as §1

[5] = test system: NCI-H647
Method in brief: as §1

[6] = test system: NCI-H650
Method in brief: as §1

[7] = test system: EPLC-272H
Method in brief: as §1

[8] = test system: HCC-827
Method in brief: as §1

[9] = test system: NCI-H2126
Method in brief: as §1

[10] = test system: NCI-H2087
Method in brief: as §1

[11] = test system: LC-2-ad
Method in brief: as §1

[12] = test system: NCI-H661
Method in brief: as §1

[13] = test system: NCI-H1666
Method in brief: as §1

[14] = test system: ChaGo-K-1
Method in brief: as §1

[15] = test system: NCI-H520
Method in brief: as §1

[16] = test system: NCI-H2347
Method in brief: as §1

[17] = test system: HCC-78
Method in brief: as §1

[18] = test system: RERF-LC-KJ
Method in brief: as §1

[19] = test system: 201T
Method in brief: as §1

[20] = test system: NCI-H1915
Method in brief: as §1

[21] = test system: LCLC-97TM1
Method in brief: as §1

[22] = test system: COR-L 105
Method in brief: as §1

SMILES: Nc1ccn([C@@H]2O[C@H](CO)[C@@H](O)[C@@H]2O)c(=O)n1 [Cytarabine] + COc1cc2c(Oc3ccc(NC(=O)C4(C(=O)Nc5ccc(F)cc5)CC4)cc3F)ccnc2cc1OCCCN1CCOCC1 [Foretinib] (partner 0.25 µM)
- relative viability ([1]; first compound 0.005 µM): 0.808
- relative viability ([1]; first compound 0.01581 µM): 0.914
- relative viability ([1]; first compound 0.05 µM): 1.02
- relative viability ([1]; first compound 0.1581 µM): 0.536
- relative viability ([1]; first compound 0.5 µM): 0.349
- relative viability ([2]; first compound 0.005 µM): 1.02
- relative viability ([2]; first compound 0.01581 µM): 0.908
- relative viability ([2]; first compound 0.05 µM): 0.747
- relative viability ([2]; first compound 0.1581 µM): 0.618
- relative viability ([2]; first compound 0.5 µM): 0.493
- relative viability ([3]; first compound 0.005 µM): 0.784
- relative viability ([3]; first compound 0.01581 µM): 0.414
- relative viability ([3]; first compound 0.05 µM): 0.43
- relative viability ([3]; first compound 0.1581 µM): 0.285
- relative viability ([3]; first compound 0.5 µM): 0.256
- relative viability ([4]; first compound 0.005 µM): 0.889
- relative viability ([4]; first compound 0.01581 µM): 0.905
- relative viability ([4]; first compound 0.05 µM): 0.628
- relative viability ([4]; first compound 0.1581 µM): 0.665
- relative viability ([4]; first compound 0.5 µM): 0.531
- relative viability ([5]; first compound 0.005 µM): 0.625
- relative viability ([5]; first compound 0.01581 µM): 0.617
- relative viability ([5]; first compound 0.05 µM): 0.282
- relative viability ([5]; first compound 0.1581 µM): 0.109
- relative viability ([5]; first compound 0.5 µM): 0.11
- relative viability ([6]; first compound 0.005 µM): 0.857
- relative viability ([6]; first compound 0.01581 µM): 0.642
- relative viability ([6]; first compound 0.05 µM): 0.504
- relative viability ([6]; first compound 0.1581 µM): 0.283
- relative viability ([6]; first compound 0.5 µM): 0.227
- relative viability ([7]; first compound 0.005 µM): 0.639
- relative viability ([7]; first compound 0.01581 µM): 0.477
- relative viability ([7]; first compound 0.05 µM): 0.461
- relative viability ([7]; first compound 0.1581 µM): 0.196
- relative viability ([7]; first compound 0.5 µM): 0.234
- relative viability ([8]; first compound 0.005 µM): 0.721
- relative viability ([8]; first compound 0.01581 µM): 0.424
- relative viability ([8]; first compound 0.05 µM): 0.368
- relative viability ([8]; first compound 0.1581 µM): 0.169
- relative viability ([8]; first compound 0.5 µM): 0.177
- relative viability ([9]; first compound 0.005 µM): 1.01
- relative viability ([9]; first compound 0.01581 µM): 1.03
- relative viability ([9]; first compound 0.05 µM): 1.1
- relative viability ([9]; first compound 0.1581 µM): 0.922
- relative viability ([9]; first compound 0.5 µM): 0.694
- relative viability ([10]; first compound 0.005 µM): 1.11
- relative viability ([10]; first compound 0.01581 µM): 0.834
- relative viability ([10]; first compound 0.05 µM): 0.851
- relative viability ([10]; first compound 0.1581 µM): 0.491
- relative viability ([10]; first compound 0.5 µM): 0.253
- relative viability ([11]; first compound 0.005 µM): 0.899
- relative viability ([11]; first compound 0.01581 µM): 0.823
- relative viability ([11]; first compound 0.05 µM): 0.839
- relative viability ([11]; first compound 0.1581 µM): 0.62
- relative viability ([11]; first compound 0.5 µM): 0.41
- relative viability ([12]; first compound 0.005 µM): 0.93
- relative viability ([12]; first compound 0.01581 µM): 0.942
- relative viability ([12]; first compound 0.05 µM): 0.884
- relative viability ([12]; first compound 0.1581 µM): 0.68
- relative viability ([12]; first compound 0.5 µM): 0.519
- relative viability ([13]; first compound 0.005 µM): 0.921
- relative viability ([13]; first compound 0.01581 µM): 0.869
- relative viability ([13]; first compound 0.05 µM): 0.799
- relative viability ([13]; first compound 0.1581 µM): 0.549
- relative viability ([13]; first compound 0.5 µM): 0.541
- relative viability ([14]; first compound 0.005 µM): 0.734
- relative viability ([14]; first compound 0.01581 µM): 0.59
- relative viability ([14]; first compound 0.05 µM): 0.391
- relative viability ([14]; first compound 0.1581 µM): 0.259
- relative viability ([14]; first compound 0.5 µM): 0.251
- relative viability ([15]; first compound 0.005 µM): 0.739
- relative viability ([15]; first compound 0.01581 µM): 0.795
- relative viability ([15]; first compound 0.05 µM): 0.974
- relative viability ([15]; first compound 0.1581 µM): 0.621
- relative viability ([15]; first compound 0.5 µM): 0.589
- relative viability ([16]; first compound 0.005 µM): 1.32
- relative viability ([16]; first compound 0.01581 µM): 1.43
- relative viability ([16]; first compound 0.05 µM): 0.806
- relative viability ([16]; first compound 0.1581 µM): 0.463
- relative viability ([16]; first compound 0.5 µM): 0.343
- relative viability ([17]; first compound 0.005 µM): 0.601
- relative viability ([17]; first compound 0.01581 µM): 0.482
- relative viability ([17]; first compound 0.05 µM): 0.524
- relative viability ([17]; first compound 0.1581 µM): 0.378
- relative viability ([17]; first compound 0.5 µM): 0.372
- relative viability ([18]; first compound 0.005 µM): 0.855
- relative viability ([18]; first compound 0.01581 µM): 0.787
- relative viability ([18]; first compound 0.05 µM): 0.735
- relative viability ([18]; first compound 0.1581 µM): 0.545
- relative viability ([18]; first compound 0.5 µM): 0.469
- relative viability ([19]; first compound 0.005 µM): 1.1
- relative viability ([19]; first compound 0.01581 µM): 1.12
- relative viability ([19]; first compound 0.05 µM): 1.02
- relative viability ([19]; first compound 0.1581 µM): 0.762
- relative viability ([19]; first compound 0.5 µM): 0.323
- relative viability ([20]; first compound 0.005 µM): 1.11
- relative viability ([20]; first compound 0.01581 µM): 1.02
- relative viability ([20]; first compound 0.05 µM): 1.01
- relative viability ([20]; first compound 0.1581 µM): 0.771
- relative viability ([20]; first compound 0.5 µM): 0.757
- relative viability ([21]; first compound 0.005 µM): 0.924
- relative viability ([21]; first compound 0.01581 µM): 0.814
- relative viability ([21]; first compound 0.05 µM): 0.749
- relative viability ([21]; first compound 0.1581 µM): 0.469
- relative viability ([21]; first compound 0.5 µM): 0.485
- relative viability ([22]; first compound 0.005 µM): 0.972
- relative viability ([22]; first compound 0.01581 µM): 1.29
- relative viability ([22]; first compound 0.05 µM): 0.825
- relative viability ([22]; first compound 0.1581 µM): 0.812
- relative viability ([22]; first compound 0.5 µM): 0.438
